Format in all cases: in vivo
Series [1] has as its system ALOMY=Alopecurus myosuroides=weed. The series is described as follows: Greenhouse trial, post-emergence action against weeds (test method 1). The conditions noted are these: PO application, about 3 weeks after application; g of AS/ha: flufenacet 120, diclofop 378, diflufenican 120, mixture 120+378+120. Here is the method: (§1) In the standard design of the test, seeds of various broad-leaved weed and weed grass biotypes (origins) were sown in a 8-13 cm diameter pot filled with natural soil of a standard field soil (loamy silt; non-sterile) and covered with a covering soil layer of about 1 cm. The pots were then cultivated in a greenhouse (12-16 h of light, temperature day 20-22° C., night 15-18° C.) until the time of application. The pots were treated on a laboratory track sprayer with spray liquors comprising the compositions according to the invention, mixtures of the prior art or components used individually. Application of the active compounds or active compound combinations formulated as WG, WP, EC or otherwise was carried out at the appropriate growth stages of the plants. The application rate for the spray application was 100-600 l of water/ha. After the treatment, the plants were returned to the greenhouses.
(§2) About 3 weeks after the application, the soil action or/and foliar action was assessed visually according to a scale of 0-100% in comparison to an untreated comparative group: 0%=no noticeable effect compared to the untreated comparative group; 100%=full effect compared to the untreated comparative group.
(§3) (notes: the term “seeds” also includes vegetative propagation forms such as, for example, rhizome pieces; abbreviations used: h light=hours of illumination, g of AS/ha=gram of active substance per hectare, l/ha=liter per hectare, S=sensitive, R=resistant) • 1. Post-emergence action against weeds: seeds of various broad-leaved weed and weed grass biotypes (origins) were sown in a 8-13 cm diameter pot filled with natural soil of a standard field soil (loamy silt; non-sterile) and covered with a covering soil layer of about 1 cm. The pots were then cultivated in a greenhouse (12-16 h of light, temperature day 20-22° C., night 15-18° C.) until the time of application. The pots were treated at various BBCH stages between 11-25 of the seeds/plants, i.e. generally between two to three weeks after the start of the cultivation, on a laboratory track sprayer with spray liquors comprising the compositions according to the invention, mixtures or components used individually, as WG, WP, EC or other formulations. The application rate for the spray application was 100-600 l of water/ha. After the treatment, the plants were returned to the greenhouses and, when required, treated with fertilizer and watered. • 2. Selective post-emergence action: seeds of various crop species (origins) were sown in a 8-13 cm diameter pot filled with natural soil of a standard field soil (loamy silt; non-sterile) and covered with a covering soil layer of about 1 cm. The pots were then cultivated in a greenhouse (12-16 h of light, temperature day 20-22° C., night 15-18° C.) until the time of application. The pots were treated at various BBCH stages between 11-32 of the seeds/plants, i.e. generally between two to four weeks after the start of the cultivation, on a laboratory track sprayer with spray liquors comprising the compositions according to the invention, mixtures or components used individually, as WG, WP, EC or other formulations. The application rate for the spray application was 100-600 l of water/ha. After the treatment, the plants were returned to the greenhouses and, when required, treated with fertilizer and watered. The pots were cultivated in a greenhouse (12-16 h light, temperature day 20-22° C., night 15-18° C.).
(§4) E=(A+B+C)−(A×B+A×C+B×C)/100+(A×B×C)/10 000 • in which: • A, B, C=each the activity of the components A or B or C in percent at a dosage of a or b gram of AS/ha; • E^C=expected value according to Colby in % at a dosage of a+b gram of AS/ha. • Δ=difference (%) of measured value−%-to expected value−%-(measured value minus expected value) • Δ^D=difference (%) of the measured value of an observation A−%-to the measured value of an observation B−%. […]

Series [2] has as its system STEME=Stellaria media=weed. The series is described as above. The conditions noted are these: PO application, about 3 weeks after application; g of AS/ha: flufenacet 120, diclofop 378, diflufenican 120, mixture 120+378+120. Here is the method:
as §1, §2, §3, §4

The subject of series [3] is APESV=Apera Spica-venti=weed. Described as above. The conditions noted are these: PO application, about 3 weeks after application; g of AS/ha: flufenacet 120, diclofop 378, diflufenican 120, mixture 120+378+120. The protocol: as §1, §2, §3, §4
Series [4] has as its system TRZAW=Triticum aestivum, winter wheat=crop plant. The series is described as follows: Greenhouse trial, selective post-emergence action on crop plants (test method 2). The protocol: as §1, §2, §3, §4
The test system of series [5] is TRZAS=Triticum aestivum, summer wheat=crop plant. Described as above. The protocol: as §1, §2, §3, §4
[6] abbreviates: PO application, about 3 weeks after application, g of AS/ha: flufenacet 120, diclofop 378, diflufenican 120, mixture 120+378+120.

`CC(Oc1ccc(Oc2ccc(Cl)cc2Cl)cc1)C(=O)O` (racemic) [(B) diclofop, (±)-2-[4-(2,4-dichlorophenoxy)phenoxy]propanoic acid]: in series [1], the “activity ALOMY, visual assessment on scale 0-100% versus untreated” value was determined as 15%. Besides, the “activity STEME, visual assessment on scale 0-100% versus untreated” value in series [2] worked out at 0%. Also, the “activity APESV, visual assessment on scale 0-100% versus untreated” value in series [3] is on record as 0%. Besides, the “action on crop plant TRZAW, visual assessment on scale 0-100% versus untreated” value in series [4] (setting [6]) worked out at 20%. Also, in series [5] (setting [6]), the “action on crop plant TRZAS, visual assessment on scale 0-100% versus untreated” value is recorded as 10%.

Take `CC(C)N(C(=O)COc1nnc(C(F)(F)F)s1)c1ccc(F)cc1` [(A) flufenacet, N-(4-fluorophenyl)-N-(1-methylethyl)-2-[[5-(trifluoromethyl)-1,3,4-thiadiazol-2-yl]oxy]acetamide]: in series [1], the “activity ALOMY, visual assessment on scale 0-100% versus untreated” value is listed as 65%. The “activity STEME, visual assessment on scale 0-100% versus untreated” value in series [2] came to 30%. Besides, in series [3], the “activity APESV, visual assessment on scale 0-100% versus untreated” value came to 60%. The “action on crop plant TRZAW, visual assessment on scale 0-100% versus untreated” value in series [4] (in vivo, po) was found to be 50%. Moreover, in series [5] (in vivo, po), the “action on crop plant TRZAS, visual assessment on scale 0-100% versus untreated” value came to 40%.

In the case of `O=C(Nc1ccc(F)cc1F)c1cccnc1Oc1cccc(C(F)(F)F)c1` [(C) diflufenican, N-(2,4-difluorophenyl)-2-[3-(trifluoromethyl)phenoxy]-3-pyridinecarboxamide], the “activity ALOMY, visual assessment on scale 0-100% versus untreated” value in series [1] is 10%. For the same molecule, the “activity STEME, visual assessment on scale 0-100% versus untreated” value in series [2] is given as 30%. Further, the “activity APESV, visual assessment on scale 0-100% versus untreated” value in series [3] turned out to be 5%. For the same molecule, in series [4] (setting [6]), the “action on crop plant TRZAW, visual assessment on scale 0-100% versus untreated” value is on record as 5%. Further, the “action on crop plant TRZAS, visual assessment on scale 0-100% versus untreated” value in series [5] (setting [6]) worked out at 5%.

For the origin of these results see patent US20110152087A1, “Herbicidal compositions comprising flufenacet” (Bayer CropScience AG, priority 2009, published 2011).
